Results from article PMC6429183, “Identification of Compounds That Inhibit Estrogen-Related Receptor Alpha Signaling Using High-Throughput Screening Assays” (Molecules, 2019).
Values joined by “and” are separate entries in the source; they are usually repeats but may differ in a detail not shown here. Identical values can stand only once. Like-named read-outs stand apart in the source and are kept apart here.

Legend:
[1] = molecular target: T1, estrogen-related receptor alpha (ERRα) (Homo sapiens, UniProt P11474); test: ERR reporter (luciferase) antagonist qHTS assay, ERR-HEK293; conditions: for EC50: mean ± SD, triplicate; for ERR-HEK293 Follow-Up Efficacy: follow-up screen; for ERR-HEK293 Follow-Up Efficacy / ERR-HEK293 Primary Efficacy: relative to XCT790 = −100%; for ERR-HEK293 Primary Efficacy: primary qHTS, DMSO = 0%; for activity in the ERR assay: in words
T1 sequence (P11474 1-423): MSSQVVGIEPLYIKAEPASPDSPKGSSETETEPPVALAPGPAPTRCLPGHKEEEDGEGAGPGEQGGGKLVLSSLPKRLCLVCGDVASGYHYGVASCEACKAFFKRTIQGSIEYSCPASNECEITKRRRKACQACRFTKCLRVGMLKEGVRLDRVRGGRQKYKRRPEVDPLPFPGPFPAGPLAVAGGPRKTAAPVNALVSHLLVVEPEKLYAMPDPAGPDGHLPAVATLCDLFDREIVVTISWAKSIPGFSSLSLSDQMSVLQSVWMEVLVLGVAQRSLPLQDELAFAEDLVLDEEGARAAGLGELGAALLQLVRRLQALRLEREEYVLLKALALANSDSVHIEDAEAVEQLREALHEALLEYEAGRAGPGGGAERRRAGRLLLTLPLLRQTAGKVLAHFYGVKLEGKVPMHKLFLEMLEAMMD
Method: (§3) The ERR reporter HEK293 cells were cultured in high glucose DMEM medium (ThermoFisher Scientific, Inc., Waltham, MA, USA) supplemented with 10% fetal bovine serum (FBS; ThermoFisher Scientific, Inc.), 4 mM of L-glutamine (ThermoFisher Scientific, Inc.), 1 mM of sodium pyruvate (ThermoFisher Scientific, Inc.), 100 U/mL of penicillin and 100 mg/mL of streptomycin (ThermoFisher Scientific, Inc.). PGC/ERR reporter HEK293 cells were cultured in the same medium as the ERR reporter HEK293 cells with an additional 1 μg/mL puromycin (ThermoFisher Scientific, Inc.) as the selection marker for PGC-1α expression.
(§4) The DMSO-only compound plates at the beginning and end of the compound plate stack were used to correct the data set by applying an in-house pattern correction algorithm [90]. The half maximum inhibition values (IC50) for each compound and maximum response (efficacy) values were obtained by fitting the concentration-response curves of each compound to a four-parameter Hill equation [91]. […] For each reading, the activity outcome of a test compound was first categorized by the average curve rank from the triplicate runs and the reproducibility calls. The final activity outcome of each compound was based on the ERR antagonist readout activity and cell viability counter screen.

cytochrome c = test: qRT-PCR mRNA expression of ERR downstream gene cytochrome c; format: cell-based; conditions: ERR reporter cells, vs GAPDH, DMSO = 0%
Method: (§1) Total RNA was isolated from treated ERR reporter cells using an RNeasy Mini Kit (Qiagen, Germantown, MD, USA), homogenized using a QIAshredder (Qiagen), and reverse transcribed with a High-Capacity RNA-to-cDNA™ Kit (ThermoFisher Scientific, Inc.) following the manufacturers’ instructions. Expression of ERRα, COX8α, IDH3α, PPARα, COX4I1, and cytochrome c genes was normalized against GAPDH. All primers were purchased from ThermoFisher Scientific, Inc. Real-time PCR assays were performed in 384-well plates on a QuantStudio 5 (Applied Biosystems, Foster City, CA, USA) with TaqMan™ Gene Expression Master Mix (ThermoFisher Scientific, Inc.). Induction values were calculated using the equation: Fold = 2^ΔΔCt, where ΔCt represents the differences in cycle threshold numbers between each of the target genes and GAPDH, and ΔΔCt represents the relative change in these differences between control and treatment groups. Experimental data are presented as a mean of triplicate determinations ± SD. Statistical comparisons were made by t-test, while the statistical significance was set at p values of <0.05 (light blue), <0.01 (medium blue), and <0.001 (dark blue).

IDH3α = test: qRT-PCR mRNA expression of ERR downstream gene IDH3α; format: cell-based; conditions: ERR reporter cells, vs GAPDH, DMSO = 0%
Method: as §1

[2] = system: ERR reporter HEK293 cells; test: CellTiter-Fluor cell viability assay multiplexed with ERR reporter assay; format: cell-based; conditions: for ERR-HEK293 Follow-Up Viability EC50: follow-up screen; for EC50: Homo sapiens
Method: (§2) ERR or PGC/ERR reporter HEK293 cells suspended in culture medium without puromycin were dispensed at 2500 cells/5 μL/well in tissue culture–treated 1536-well white assay plates (Greiner Bio-One North America, Monroe, NC, USA) using a Thermo Scientific Multidrop Combi (ThermoFisher Scientific, Inc.). […] After the cells were incubated at 37 °C with 5% CO2 for 6 h, 23 nL of compounds or control, XTC790, was transferred into the assay plates using a Wako Pintool station (Wako Automation, San Diego, CA, USA). The assay plates were incubated at 37 °C for 18 h, followed by the addition of 5 μL ONE-Glo luciferase reagent (Promega, Madison, WI, USA) using a Flying Reagent Dispenser (Aurora Discovery, Carlsbad, CA, USA). After 30 min of incubation at room temperature, the luminescence intensity of the assay plates was quantified using a ViewLux plate reader (PerkinElmer, Shelton, CT, USA). The assays were performed three times for each compound concentration. These ERR and PGC/ERR reporter assays were multiplexed with the CellTiter-Fluor Cell Viability Assay (Promega), a fluorescence-based cell viability assay, to assess compound cytotoxicity.
The qHTS data were analyzed as described previously. […] The DMSO-only compound plates at the beginning and end of the compound plate stack were used to correct the data set by applying an in-house pattern correction algorithm. The half maximum inhibition values (IC50) for each compound and maximum response (efficacy) values were obtained by fitting the concentration-response curves of each compound to a four-parameter Hill equation [91]. […] For each reading, the activity outcome of a test compound was first categorized by the average curve rank from the triplicate runs and the reproducibility calls. The final activity outcome of each compound was based on the ERR antagonist readout activity and cell viability counter screen.

[3] = system: Nrf2/antioxidant response element (ARE); test: Nrf2/ARE-HepG2 β-lactamase reporter agonist assay; format: cell-based; conditions: agonist mode, heatmap outcome
Method: After the assay plates were incubated at 37 °C for 5–6 h, 23 nL of compounds dissolved in DMSO or positive controls were transferred to the assay plates via a Wako Pintool station (Wako). Except for ARE and p53, all other assays received 1 µL/well agonist (10 nM R1881 for AR; 0.5 and 5 nM β-estradiol for ERα and ERβ respectively; 300 µM CDCA for FXR; 50 nM Rosiglitazone for PPARγ; and 5 nM R5020 for PR) or assay medium using a Flying Reagent Dispenser (FRD). The assay plates were incubated for 16 h (AR, Nrf2/ARE, ERβ, FXR, p53, and PR), 17 h (PPARγ), or 18 h (ERα) at 37 °C, and 1 µL/well LiveBLAzer™ FRET-B/G CCF4-AM substrate (ThermoFisher Scientific, Inc.) detection mix was added using an FRD and the plates were incubated at room temperature for 2 h. […] Data were expressed as the ratio of 460/530 nm emission values.

[4] = molecular target: T2, ERRα with PGC-1α (PGC/ERR pathway) (Homo sapiens, UniProt P11474); test: PGC/ERR reporter (luciferase) qHTS assay, PGC/ERR-HEK293; conditions: for EC50: mean ± SD, triplicate; for PGC/ERR-HEK293 Follow-Up Efficacy: follow-up screen; for PGC/ERR-HEK293 Follow-Up Efficacy / PGC/ERR-HEK293 Primary Efficacy: negative = antagonism, positive = agonism; for activity in the ERR/PGC assay: in words; for PGC/ERR-HEK293 Primary Efficacy: primary qHTS
T2 sequence (P11474 1-423): T1 sequence (P11474 1-423)

COX4I1 = test: qRT-PCR mRNA expression of ERR downstream gene COX4I1; format: cell-based; conditions: ERR reporter cells, vs GAPDH, DMSO = 0%
Method: as §1, with “Experimental data are presented as a mean of triplicate determinations ± SD. Statistical comparisons were made by t-test, while the statistical significance was set at p values of <0.05 (light blue), <0.01 (medium blue), and <0.001 (dark blue).” left out

[5] = system: PGC/ERR reporter HEK293 cells; test: CellTiter-Fluor cell viability assay multiplexed with PGC/ERR reporter assay; format: cell-based; conditions: for EC50: Homo sapiens; for PGC/ERR-HEK293 Follow-Up Viability EC50: follow-up screen; for PGC/ERR-HEK293 Primary Viability EC50: primary qHTS
Method: as §2
The qHTS data were analyzed as described previously. Each titration point was normalized relative to the positive control compound (XCT790 = −100%) and DMSO-only wells (0%) according to the following equation: % Activity = [(Vcompound − VDMSO)/(VDMSO − Vpos)] × 100, where Vcompound denotes the compound well values, Vpos denotes the median value of the positive control wells, and VDMSO denotes the median values of the DMSO-only wells. The DMSO-only compound plates at the beginning and end of the compound plate stack were used to correct the data set by applying an in-house pattern correction algorithm. The half maximum inhibition values (IC50) for each compound and maximum response (efficacy) values were obtained by fitting the concentration-response curves of each compound to a four-parameter Hill equation [91]. Compounds were designated as Class 1–4 according to the type of concentration–response curve observed. For each reading, the activity outcome of a test compound was first categorized by the average curve rank from the triplicate runs and the reproducibility calls. The final activity outcome of each compound was based on the ERR antagonist readout activity and cell viability counter screen.

[6] = molecular target: T1, estrogen-related receptor alpha (ERRα)
Method: as §3, §4

COX8α = test: qRT-PCR mRNA expression of ERR downstream gene COX8α; format: cell-based; conditions: 2 µM; ERR reporter cells; vs GAPDH, DMSO = 0%
Method: as §1

[7] = molecular target: T2, ERRα with PGC-1α (PGC/ERR pathway)
[8] = ERR-HEK293 Follow-Up EC50, follow-up (confirmation) screen
[9] = ERR-HEK293 Primary EC50, primary qHTS, 18 h, 15 concentrations
[10] = primary qHTS, viability counter screen
[11] = PGC/ERR-HEK293 Follow-Up EC50, follow-up screen
[12] = PGC/ERR-HEK293 Primary EC50, primary qHTS, 18 h
[13] = HEK293, primary qHTS, read-out: PGC/ERR-HEK293 Primary Viability EC50 (converted)

Row | Compound | EC50 [1, 8] [µM] | EC50 [1, 9] [µM] | ERR-HEK293 Follow-Up Efficacy [1] [%] | ERR-HEK293 Primary Efficacy [1] [%] | ERR-HEK293 Follow-Up Viability EC50 [2] | ERR-HEK293 Primary Viability EC50 [2, 10] | EC50 [4, 11] [µM] | EC50 [4, 12] [µM] | PGC/ERR-HEK293 Follow-Up Efficacy [4] [%] | activity in the ERR/PGC assay [4] | PGC/ERR-HEK293 Primary Efficacy [4] [%] | activity in the ERR assay [1] | EC50 [5, 13] [µM] | ERR-HEK293 Follow-Up Efficacy [6] [%] | ERR-HEK293 Primary Efficacy [6] [%] | PGC/ERR-HEK293 Follow-Up Viability EC50 [5] | PGC/ERR-HEK293 Primary Viability EC50 [5] | PGC/ERR-HEK293 Follow-Up Efficacy [7] [%] | PGC/ERR-HEK293 Primary Efficacy [7] [%] | further results
1 | C[C@@H]1CC[C@H]2[C@@H](C)C(=O)O[C@@H]3O[C@@]4(C)CC[C@@H]1[C@]32OO4 [Artemisinin] | 2.44 ± 1.22 | 1.01 ± 0.297 | −83.7 ± 14.6 | −71.6 ± 5.57 | Inactive | Inactive | 14.5 ± 10.8 | 1.78 ± 0.401 | −72.8 ± 22.0 | antagonism | −57.6 ± 2.03 |  |  |  |  |  |  |  |  | ERR-HEK293 Primary Efficacy ([1]; listed as artemisinin): −71.6%; Percent inhibition of mRNA gene expression, Cytochrome C (cytochrome c; 7 µM): 36.2%; Percent inhibition of mRNA gene expression, IDH3α (IDH3α; 7 µM): 30.2%; activity in the Nrf2-ARE assay [3]: active agonists
2 | Cc1nc2ccccc2n1Cc1ccc(Cl)cc1 [Chlormidazole] |  |  |  |  |  |  |  |  |  |  |  |  |  |  |  |  |  |  |  | Percent inhibition of mRNA gene expression, Cytochrome C (cytochrome c; 5 µM): 35.8 ± 3.92%; Percent inhibition of mRNA gene expression, IDH3α (IDH3α; 5 µM): 23.8 ± 3.17%; Percent inhibition of mRNA gene expression, COX4I1 (COX4I1; 5 µM): 4.71 ± 5.09%
3 | C=C(C)[C@H]1Cc2c(ccc3c2O[C@@H]2COc4cc(OC)c(OC)cc4[C@@H]2C3=O)O1 [Rotenone] | 0.016 ± 0.00671 | 0.0133 ± 0.00476 | −95.8 ± 17.8 | −92.4 ± 3.03 |  | Inactive | 0.0618 ± 0.061 | 0.00742 ± 0.00207 | −41.9 ± 8.70 | antagonism | −31.0 ± 4.14 | potent antagonists | 1.01 |  |  |  |  |  |  | Percent inhibition of mRNA gene expression, Cytochrome C (cytochrome c; 175 nM): 27.3% and 27.3 ± 7.33%; Percent inhibition of mRNA gene expression, IDH3α (IDH3α; 175 nM): 22.4% and 22.4 ± 3.14%; EC50 ([2]; HEK293, read-out: ERR-HEK293 Follow-Up Viability EC50): 0.429 µM; EC50 ([5]; HEK293, follow-up screen, read-out: PGC/ERR-HEK293 Follow-Up Viability EC50 (converted)): 2.97 µM; Percent inhibition of mRNA gene expression, COX4I1 (COX4I1; 175 nM): 2.34 ± 3.78%
4 | CO/N=C(/C(=O)OC)c1ccccc1COc1ccccc1C [Kresoxim-methyl] | 8.31 ± 3.29 | 5.65 ± 6.96 |  |  | Inactive | Inactive | 17.7 ± 6.04 | 7.66 ± 6.87 |  |  |  |  |  | −102 ± 1.40 | −86.6 ± 21.1 | Inactive | Inactive | −61.1 ± 10.0 | −56.7 ± 8.51 | Percent inhibition of mRNA gene expression, Cytochrome C (cytochrome c; 2 µM): 9.31 ± 0.48%; Percent inhibition of mRNA gene expression, IDH3α (IDH3α; 2 µM): 8.26 ± 19.3%; Percent inhibition of mRNA gene expression, COX8α (COX8α): 9.70 ± 12.8%
5 | CC(C)(C)c1ccc(CSc2cnn(C(C)(C)C)c(=O)c2Cl)cc1 [Pyridaben] | 0.0245 ± 0.00942 | 0.00592 ± 0.000815 |  |  | Inactive | Inactive | 0.0434 ± 0.02 | 0.00781 ± 0.00301 |  | antagonism |  | potent antagonists |  | −94.1 ± 13.4 | −77.3 ± 4.10 | Inactive | Inactive | −63.1 ± 29.7 | −57.6 ± 8.49 | Percent inhibition of mRNA gene expression, IDH3α (IDH3α; 15 nM): 14.6%
6 | COC(=O)N(OC)c1ccccc1COc1ccn(-c2ccc(Cl)cc2)n1 [Pyraclostrobin] | 0.762 | 0.239 ± 0.13 |  |  | Inactive |  | 0.539 ± 0.76 | 0.838 ± 0.771 |  |  |  |  | 74.5 | −80.0 ± 5.67 | −90.7 ± 11.9 | Inactive |  | −42.1 ± 9.82 | −58.2 ± 4.17 | Percent inhibition of mRNA gene expression, Cytochrome C (cytochrome c; 1 µM): 11.0 ± 8.54%; Percent inhibition of mRNA gene expression, IDH3α (IDH3α; 1 µM): 5.06 ± 5.03%; EC50 ([2]; HEK293, primary qHTS, viability counter screen, read-out: ERR-HEK293 Primary Viability EC50 (converted)): 40.9 µM
